Assay results reported in patent US20050250853A1, “Beta-tubulin inhibitors” (priority 1999, published 2005).
Entries after “also recorded” stand apart in the source; their conditions may differ. Like-named read-outs stand apart in the source and are kept apart here. Marks after values point to notes of the source that are not given here.

Tests used:
[1] = system: MDA-MB-231 cells; experiment: Cell cycle analysis by propidium iodide flow cytometry; type: cell-based, human; details: CEU derivatives at 30 μM, 24 h; flow cytometry
Description: FIG. 1. Effect of CEU derivatives on cell cycle. Exponentially growing MDA-MB-231 cells were incubated in the absence or presence of 30 μM of either 4-tBCEU, 4-iPCEU or 4-sBCEU for 24 and 48 h, respectively, at 37° C. The cell cycle was evaluated using propidium iodide staining and flow cytometric analysis. Data are representative of three independent experiments.
Following incubation of MDA-MB-231 cells with 4-tBCEU, 4-iPCEU or 4-sBCEU, the cells were harvested, resuspended in 1 ml PBS and fixed by the addition of 2.4 ml of ice cold anhydrous ethanol. Then, 5×10^5 cells from each sample were centrifuged for 3 min at 1000×g. Cell pellets were resuspended in PBS containing 50 μg/ml of PI and 40 U/ml of ribonuclease A (Boehringer Mannheim, Laval, Calif.). Mixtures were incubated at room temperature for 30 min and cell cycle distribution was analyzed using an Epics Elite ESP flow cytometer (Coulter Corporation, Miami, Fla., USA).
The effect of CEU, namely 4-tBCEU, 4-PCEU and 4-sBCEU, on the cell cycle was analyzed. To this end, exponentially growing MDA-MB-231 cells were treated with 30 μM 4-tBCEU, 4-iPCEU or 4-sBCEU for 24 or 48 h followed by an evaluation of cell cycle distribution by flow cytometry using propidium iodide, a fluorescent DNA dye. […] Induction of mitosis blockage in prophase by CEU derivatives was confirmed by mitotic index analysis as described by Drouin (22).

[2] = system: β-tubulin; experiment: Separation of soluble and polymerized tubulins, Western blot of β-tubulin; type: cell-based, human; details: MDA-MB-231 cells, 30 μM, 24 h and 48 h
Description: FIG. 2. Effects of CEU derivatives on microtubule depolymerization. Exponentially growing MDA-MB-231 cells were incubated in the absence or the presence of 30 μM of CEU derivatives including (A) 4-tBCEU, 4-iPCEU or 4-sBCEU for 24 and 48 h respectively; (B) 2-ECEU, 3-ECEU or 4-ECEU for 24 and 48 h; and (C) 4-tBEU, 4-iPEU, 4-sBEU, 4-tBCPU, CEU or 4-methoxyCEU for 48 h. Free tubulin and microtubule fractions were isolated and analyzed by Western blot. Data are representative of three different experiments.
Separation of soluble and polymerized tubulins from MDA-MB231 cells was carried out as described by Minotti et al. (14) with minor modifications. Briefly, after drug exposure, about 5×10^6 cells in 100-mm petri dishes were washed with PBS at 37° C. and harvested in 3 ml of PBS containing 0.4 μg/ml of taxol using a rubber policeman.
Cells were centrifuged and lysed using 250 μl of microtubule-stabilizing buffer (20 mM Tris-HCl, pH 6.8, 140 mM NaCl, 1 mM MgCl2, 2 mM EDTA, 0.5% Nonidet P-40 and 0.4 μg/ml taxol), and then transferred to 1.5 ml microcentrifuge tubes. Samples were centrifuged at 12,000×g for 10 min at 4° C. and the supernatants containing soluble tubulin were placed in separate microcentrifuge tubes containing 250 μl of 2× Laemmli sample buffer (15). Pellets containing the polymerized tubulin were resuspended in 250 μl of water, followed by two freeze/thawing cycles, and the addition of 250 μl of 2× Laemmli sample buffer. Samples were analyzed by SDS-PAGE and immunoassay was performed as described below.
Samples (1×10^5 cells) were analyzed by 10% SDS-PAGE using the Laemmli system (15). Membranes were then incubated with PBSMT (PBS, pH 7.4, 5% fat-free dry milk and 0.1% Tween-20) for 1 h at room temperature, and then with 1:500 monoclonal anti-β-tubulin (clone TUB 2.1, Sigma) or 1:400 anti (clone no. SDL.3D10, Sigma) for 1 h. […] Membranes were washed with PBSMT and incubated with 1:2500 peroxidase-conjugated anti-mouse immunoglobulin (Amersham Canada, Oakville, Canada) in PBSMT for 30 min. Detection of the immunoblot was carried out with the ECL Western blotting detection reagent kit (Amersham Canada, Oakville, Canada).

[3] = system: MDA-MB-231 cells; experiment: cells; type: cell-based, human; details: for IC50: MTT assay, mean ± SD, read-out: IC50 (μM) MDA-MB-231
Description: (§1) Human breast carcinoma cell line, MDA-MB-231, was obtained from the American Type Culture Collection (ATCC HTB-26; Bethesda, Md.). MDA-MB-231 cells were grown in RPMI 1640 medium supplemented with 10% bovine calf serum (Hyclone, Road Logan, Utah). Wild-type Chinese Hamster Ovary cells (CHO-10001) (7), colchicine- and vinblastine-resistant (CHO-VV 3-2) (8) and taxol-resistant (CHO-TAX 5-6) cells (9) were generously provided by Dr. Fernando Cabral (University of Texas Medical School, Houston, Tex.). These cells were cultured in RPMI 1640 containing 10% fetal bovine serum. SK—N—SH human neuroblastoma cells, (ATCC HTB-11; Bethesda, Md.) were cultured in MEM medium supplemented with 2 mM L-glutamine, 1.5 g/liter sodium bicarbonate, 0.1 mM non-essential amino acids, 1 mM sodium pyruvate and 10% fetal bovine serum. Cells were cultured in a humidified atmosphere at 37° C. in 5% CO2.
(§2) Cytotoxicity was assessed using the MTT assay (3-(4,5-dimethylthiazol-2-yl)-2,5-diphenyltetrazolium bromide) as described by Carmichael et al. (12).

[4] = Kinetics of alkylation of 4-(4-nitrobenzyl)pyridine (colorimetric assay); type: physicochemical; details: 80° C., pH 4.3, absorbance at 570 nm, linear regression, mean ± SD
Description: The rate constant of alkylation (K′) of CEU derivatives and chlorambucil was evaluated by a […] assay as described by Bardos et al (13). Briefly, 1 ml of a 10% (v/v) solution of 4-(4-nitrobenzyl)pyridine in ethanol and 1 ml of 50 mM sodium acetate (pH 4.3) were added to an ethanol solution (95%) containing 400 nmol per ml of either chlorambucil or CEU and heated to 80° C. in a shaking water bath for 60, 90, 120 or 150 min. The reaction was stopped by cooling the mixtures on ice for 5 min. Then, 1.5 ml of 0.1 M KOH: ethanol (1:2, v/v) were added to the reaction mixture. Samples were vortexed for 12 sec and set aside for 2.5 min prior to reading the absorbance at 570 nm. The values were compared with those obtained using a blank sample containing all reagents except the alkylating agent.

[5] = system: CHO 10001 cells (wild-type); experiment: MTT cytotoxicity on wild-type CHO cells; type: cell-based, Chinese hamster; details: Cricetulus griseus, CHO10001, 120 h, read-out: IC50 CHO 10001
Description: as §1, with “Wild-type Chinese Hamster Ovary cells (CHO-10001) (7), colchicine- and vinblastine-resistant (CHO-VV 3-2) (8) and taxol-resistant (CHO-TAX 5-6) cells (9) were generously provided by Dr. Fernando Cabral (University of Texas Medical School, Houston, Tex.).” left out
as §2
(§3) The cytotoxicity of 4-tBCEU, 4-iPCEU and 4-sBCEU in two CHO cell lines having differential sensitivity to antmicrotubule agents was evaluated. These cell lines are derived from parental CHO-10001 cells and express mutated tubulins.

[6] = system: α-tubulin; experiment: Western blot for α-tubulin modification; type: cell-based, human; details: data not shown
[7] = system: CHO TAX 5-6 cells; experiment: MTT cytotoxicity on taxol-resistant CHO cells expressing mutated tubulin; type: cell-based, Chinese hamster; details: Cricetulus griseus, CHO-TAX 5-6, 120 h, read-out: IC50 CHO TAX 5-6
Description: as §1, with “Wild-type Chinese Hamster Ovary cells (CHO-10001) (7), colchicine- and vinblastine-resistant (CHO-VV 3-2) (8) and taxol-resistant (CHO-TAX 5-6) cells (9) were generously provided by Dr. Fernando Cabral (University of Texas Medical School, Houston, Tex.).” left out
as §2, §3

[8] = system: CHO VV 3-2 cells; experiment: MTT cytotoxicity on vinblastine- and colchicine-resistant CHO cells expressing mutated tubulin; type: cell-based, Chinese hamster; details: Cricetulus griseus, CHO-VV 3-2, 120 h, read-out: IC50 CHO VV 3-2
Description: as §1, with “Wild-type Chinese Hamster Ovary cells (CHO-10001) (7), colchicine- and vinblastine-resistant (CHO-VV 3-2) (8) and taxol-resistant (CHO-TAX 5-6) cells (9) were generously provided by Dr. Fernando Cabral (University of Texas Medical School, Houston, Tex.).” left out
as §2, §3

Compound: CC(C)(C)c1ccc(NC(=O)NCCCl)cc1 [Example 4-tBCEU, 4-tert-butyl[3-(2-chloroethyl)ureido]benzene]
- accumulation of cells in G2+M [1]: significant accumulation of cells in the G2+M
- microtubule depolymerization [2]: complete microtubule depolymerization
- formation of modified β-tubulin (second immunoreactive band of lower Mr) ([2]; free tubulin fraction): second immunoreactive band; also recorded: induced in a dose-dependent manner
- cytotoxicity in words (active / inactive CEU) [3]: active
- IC50 ([3]; Homo sapiens, MDA-MB-231, concentration inhibiting 50% of cell growth): 4 µM
- IC50 ([3]; concentration inhibiting 50% of cell growth): 4.6 ± 0.3 µM
- K′ (constant of alkylation of 4-(4-nitrobenzyl)pyridine) [4]: 3.1 ± 0.3^a
- IC50 [5]: 11.6 ± 0.7 µM
- α-tubulin modification [6]: no electrophoretic evidence for α-tubulin modification
- IC50 [7]: 4.6 ± 0.3 µM
- IC50 [8]: 21.3 ± 1.1 µM
